PubChem BioAssay (NCI)
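Results reflect a 48-hour exposure of cells in 96-well plates to compound at five concentrations. TGI is the concentration that stops growth completely.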

Key:
Assay in all cases: NCI-60 cell line screen, 48 h
DU-145 prostate = tested on: DU-145 prostate
KM20L2 colon = tested on: KM20L2 colon
DMS 114 small cell lung = tested on: DMS 114 small cell lung
BT-549 breast = tested on: BT-549 breast
SNB-78 CNS = tested on: SNB-78 CNS
HOP-18 NSCLC = tested on: HOP-18 NSCLC
MDA-MB-435 = tested on: MDA-MB-435
HOP-62 NSCLC = tested on: HOP-62 NSCLC
DLD-1 colon = tested on: DLD-1 colon
DMS 273 small cell lung = tested on: DMS 273 small cell lung
M19-MEL melanoma = tested on: M19-MEL melanoma
NCI/ADR-RES ovarian = tested on: NCI/ADR-RES ovarian
T-47D breast = tested on: T-47D breast

| SMILES | TGI (DU-145 prostate) [µM] | TGI (KM20L2 colon) [µM] | TGI (DMS 114 small cell lung) [µM] | TGI (BT-549 breast) [µM] | TGI (SNB-78 CNS) [µM] | TGI (HOP-18 NSCLC) [µM] | TGI (MDA-MB-435) [µM] | TGI (HOP-62 NSCLC) [µM] | TGI (DLD-1 colon) [µM] | TGI (DMS 273 small cell lung) [µM] | TGI (M19-MEL melanoma) [µM] | TGI (NCI/ADR-RES ovarian) [µM] | TGI (T-47D breast) [µM] |
| --- | --- | --- | --- | --- | --- | --- | --- | --- | --- | --- | --- | --- | --- |
| COc1c2c(nc3ccccc13)-c1cc3c(c(=O)n1C2)COC(=O)C3(O)CC(=O)N1CCOCC1 (stereo unspecified) | 17.7 | > 100 | 24.2 | > 53.1 | > 97.1 | > 79.2 | 76.9 | 20.7 | > 100 | 12.4 | 44.8 | > 48.8 | 72.3 |
| COc1c(Cl)cc(NC(=S)C#N)cc1Cl | > 100 | 54.4 | 36.3 | 39.5 | 85.9 | 60.1 | 92.8 | > 50.9 | > 100 | 83.2 | 50.2 | 54.4 | 90.6 |
